{"source": "ChEMBL document CHEMBL5247609", "about": "“Novel nitric oxide-releasing derivatives of pyranocarbazole as antitumor agents: Design, synthesis, biological evaluation, and nitric oxide release studies” (Eur J Med Chem, 2022)", "key": {"[1]": {"test_system": "MX1", "assay": "Induction of morphological changes in human MX1 cells at 0.5 to 2 uM measured after 24 hrs by bright field inverted microscopic analysis", "format": "functional, cell-based", "settings": "dose 0.5-2 µM"}, "[2]": {"test_system": "MDA-MB-231", "assay": "Antiproliferative activity against human MDA-MB-231 cells assessed as reduction in cell viability by measuring release of nitrite at 100 uM after 180 mins by Griess reagent analysis", "format": "functional", "settings": "3 h"}, "[3]": {"test_system": "HeLa", "assay": "Antiproliferative activity against human HeLa cells assessed as reduction in cell viability after 96 hrs by MTT assay", "format": "functional, cell-based"}, "[4]": {"test_system": "MDA-MB-231", "assay": "Induction of morphological changes in human MDA-MB-231 cells at 0.5 to 2 uM measured after 24 hrs by bright field inverted microscopic analysis", "format": "functional, cell-based", "settings": "dose 0.5-2 µM"}, "[5]": {"test_system": "MX1", "assay": "Induction of morphological changes in human MX1 cells assessed as decrease in cell number at 0.5 to 2 uM measured after 24 hrs by bright field inverted microscopic analysis", "format": "functional, cell-based", "settings": "dose 0.5-2 µM"}, "[6]": {"test_system": "MDA-MB-231", "assay": "Induction of morphological changes in human MDA-MB-231 cells assessed as decrease in cell size at 0.5 to 2 uM measured after 24 hrs by bright field inverted microscopic analysis", "format": "functional, cell-based", "settings": "dose 0.5-2 µM"}, "[7]": {"test_system": "MX1", "assay": "Induction of cell cycle arrest in human MX1 cells assessed as accumulation of cells at G0/G1 phase at 0.5 to 2 uM measured after 24 hrs by propidium iodide staining based FACS calibur flow cytometeric analysis (reference value: 39.2%)", "format": "functional", "settings": "dose 0.5-2 µM"}, "[8]": {"test_system": "MX1", "assay": "Induction of cell cycle arrest in human MX1 cells assessed as decrease in accumulation of cells at S phase at 0.5 to 2 uM measured after 24 hrs by propidium iodide staining based FACS calibur flow cytometeric analysis", "format": "functional", "settings": "dose 0.5-2 µM"}, "[9]": {"test_system": "MX1", "assay": "Induction of cell cycle arrest in human MX-1 cells assessed as accumulation of cells at G0/G1 phase incubated for 24 hrs by propidium iodide staining based FACS calibur flow cytometeric analysis", "format": "functional", "settings": "dose 0.5-2 µM"}, "[10]": {"test_system": "MDA-MB-231", "assay": "Induction of cell cycle arrest in human MDA-MB-231 cells assessed as accumulation of cells at G0/G1 phase incubated for 24 hrs by propidium iodide staining based FACS calibur flow cytometeric analysis", "format": "functional", "settings": "dose 0.5-2 µM"}, "[11]": {"test_system": "MX1", "assay": "Induction of cell cycle arrest in human MX1 cells assessed as increase in CDK6 expression at 0.5 to 2 uM by Western blotting analysis", "format": "functional, cell-based", "settings": "dose 0.5-2 µM, time 24.0 hrs"}, "[12]": {"test_system": "MX1", "assay": "Induction of apoptosis in human MX1 cells assessed as total apoptotic cells measured at 5 uM after 48 hrs by FITC-Annexin-V and propidium iodide based flow cytometric analysis (reference value: 16.36%)", "format": "functional"}, "[13]": {"test_system": "MDA-MB-231", "assay": "Induction of apoptosis in human MDA-MB-231 cells assessed as total apoptotic cells measured at 5 uM after 48 hrs by FITC-Annexin-V and propidium iodide based flow cytometric analysis (reference value: 6.2%)", "format": "functional"}, "[14]": {"test_system": "MDA-MB-231", "assay": "Induction of apoptosis in human MDA-MB-231 cells assessed as upregulation of Bax by Western blotting analysis", "format": "functional, cell-based", "settings": "dose 0.5-2 µM"}, "[15]": {"test_system": "MDA-MB-231", "assay": "Induction of apoptosis in human MDA-MB-231 cells assessed as downregulation of Bcl-2 by Western blotting analysis", "format": "functional, cell-based", "settings": "dose 0.5-2 µM"}, "[16]": {"test_system": "MX1", "assay": "Induction of apoptosis in human MX1 cells assessed as upregulation of Bax by Western blotting analysis", "format": "functional, cell-based", "settings": "dose 0.5-2 µM"}, "[17]": {"test_system": "MX1", "assay": "Induction of apoptosis in human MX1 cells assessed as increase in cleaved PARP-1 expression at 0.5 to 2 uM by Western blotting analysis", "format": "functional, cell-based", "settings": "dose 0.5-2 µM"}, "[18]": {"test_system": "MX1", "assay": "Induction of apoptosis in human MX1 cells assessed as early apoptotic cells measured at 1 uM after 48 hrs by FITC-Annexin-V and propidium iodide based flow cytometric analysis (reference value: 6.30%)", "format": "functional"}, "[19]": {"test_system": "MX1", "assay": "Induction of apoptosis in human MX1 cells assessed as late apoptotic cells measured at 1 uM after 48 hrs by FITC-Annexin-V and propidium iodide based flow cytometric analysis (reference value: 5.24%)", "format": "functional"}, "[20]": {"test_system": "MX1", "assay": "Induction of apoptosis in human MX1 cells assessed as necrotic cells measured at 1 uM after 48 hrs by FITC-Annexin-V and propidium iodide based flow cytometric analysis (reference value: 0.055 %)", "format": "functional"}, "[21]": {"test_system": "MX1", "assay": "Induction of apoptosis in human MX1 cells assessed as late apoptotic cells measured at 2 uM after 48 hrs by FITC-Annexin-V and propidium iodide based flow cytometric analysis (reference value: 5.24%)", "format": "functional"}, "[22]": {"test_system": "MX1", "assay": "Induction of apoptosis in human MX1 cells assessed as viable cells measured at 5 uM after 48 hrs by FITC-Annexin-V and propidium iodide based flow cytometric analysis (reference value: 88.4%)", "format": "functional", "settings": "read-out: Activity"}, "[23]": {"test_system": "MDA-MB-231", "assay": "Induction of apoptosis in human MDA-MB-231 cells assessed as viable cells measured at 0.5 uM after 48 hrs by FITC-Annexin-V and propidium iodide based flow cytometric analysis (reference value: 94.4% )", "format": "functional", "settings": "read-out: Activity"}, "[24]": {"test_system": "MDA-MB-231", "assay": "Induction of apoptosis in human MDA-MB-231 cells assessed as viable cells measured at 1 uM after 48 hrs by FITC-Annexin-V and propidium iodide based flow cytometric analysis (reference value: 94.4% )", "format": "functional", "settings": "read-out: Activity"}, "[25]": {"test_system": "MDA-MB-231", "assay": "Induction of apoptosis in human MDA-MB-231 cells assessed as necrotic cells measured at 2 uM after 48 hrs by FITC-Annexin-V and propidium iodide based flow cytometric analysis (reference value: 0.253 %)", "format": "functional"}, "[26]": {"test_system": "MDA-MB-231", "assay": "Induction of apoptosis in human MDA-MB-231 cells assessed as viable cells measured at 5 uM after 48 hrs by FITC-Annexin-V and propidium iodide based flow cytometric analysis (reference value: 94.4% )", "format": "functional", "settings": "read-out: Activity"}, "[27]": {"test_system": "MDA-MB-231", "assay": "Induction of apoptosis in human MDA-MB-231 cells assessed as late apoptotic cells measured at 5 uM after 48 hrs by FITC-Annexin-V and propidium iodide based flow cytometric analysis (reference value: 2.68%)", "format": "functional"}, "[28]": {"test_system": "MDA-MB-231", "assay": "Induction of apoptosis in human MDA-MB-231 cells assessed as necrotic cells measured at 5 uM after 48 hrs by FITC-Annexin-V and propidium iodide based flow cytometric analysis (reference value: 0.253 %)", "format": "functional"}, "[29]": {"test_system": "MX1", "assay": "Inhibition of PI3K/Akt signaling in human MX1 cells assessed as decrease in phosphorylated S6 expression incubated for 24 hrs by Western blotting analysis", "format": "cell-based", "settings": "dose 0.5-5 µM"}, "[30]": {"test_system": "EMT6", "assay": "Antitumor activity against mouse EMT6 cells allografted in BALBC mouse assessed as reduction in tumor progression at 150 mg/kg, IG administered every 3 days for 21 days", "format": "functional, organism-based", "settings": "time 21.0 day"}, "[31]": {"test_system": "MDA-MB-231", "assay": "Antitumor activity against human MDA-MB-231 cells xenografted in BALBC mouse assessed as reduction of tumor volume at 150 mg/kg, IG administered every 3 days for 21 days relative to control", "format": "functional", "design": "scale not given: the % may be the effect or the level left", "settings": "time 21 day"}, "[32]": {"assay": "Toxicity in BALBC mouse xenografted with human MDA-MB-231 cells assessed as weight loss at 50 to 150 mg/kg, IG administered every 3 days for 21 days", "format": "organism-based", "settings": "in vivo, po, 504 h, dose 50-150 mg/kg, time 21 day"}, "[33]": {"test_system": "MX1", "assay": "Inhibition of PI3K/Akt signaling in human MX1 cells assessed as decrease in total Akt expression level incubated for 24 hrs by Western blotting analysis", "format": "cell-based"}, "[34]": {"test_system": "MDA-MB-231", "assay": "Inhibition of PI3K/Akt signaling in human MDA-MB-231 cells assessed as decrease in total Akt expression level incubated for 24 hrs by Western blotting analysis", "format": "cell-based"}}, "note": "Calls of active or inactive are those of the source. No cut-off for these calls is given here.", "data": [{"smiles": "CC1(C)C=Cc2c(c(/C=C/C(=O)NCCOc3no[n+]([O-])c3S(=O)(=O)c3ccccc3)cc3c2[nH]c2ccc(C(C)(C)C)cc23)O1", "values": [{"measurement": "Activity", "setting": "[1]", "result": "Active"}, {"measurement": "Nitrite release", "setting": "[2]", "result": 54.7, "unit": "µM"}, {"measurement": "IC50", "setting": "[3]", "result": 140, "unit": "nM"}, {"measurement": "Activity", "setting": "[4]", "result": "Active"}, {"measurement": "Activity", "setting": "[5]", "result": "Active"}, {"measurement": "Activity", "setting": "[6]", "result": "Active"}, {"measurement": "Activity", "setting": "[7]", "result": 43.1, "unit": "%"}, {"measurement": "Activity", "setting": "[8]", "result": "Active"}, {"measurement": "Activity", "setting": "[9]", "result": "Dose-Dependent Effect"}, {"measurement": "Activity", "setting": "[10]", "result": "Dose-Dependent Effect"}, {"measurement": "Activity", "setting": "[11]", "result": "Active"}, {"measurement": "Activity", "setting": "[12]", "result": 87.2, "unit": "%"}, {"measurement": "Activity", "setting": "[13]", "result": 71.2, "unit": "%"}, {"measurement": "Activity", "setting": "[14]", "result": "Dose-Dependent Effect"}, {"measurement": "Activity", "setting": "[15]", "result": "Dose-Dependent Effect"}, {"measurement": "Activity", "setting": "[16]", "result": "Dose-Dependent Effect"}, {"measurement": "Activity", "setting": "[17]", "result": "Active"}, {"measurement": "Activity", "setting": "[18]", "result": 48.2, "unit": "%"}, {"measurement": "Activity", "setting": "[19]", "result": 8.1, "unit": "%"}, {"measurement": "Activity", "setting": "[20]", "result": 0.193, "unit": "%"}, {"measurement": "Activity", "setting": "[21]", "result": 2.83, "unit": "%"}, {"measurement": "viability at 5 µM", "setting": "[22]", "result": 27.5, "unit": "%"}, {"measurement": "viability at 0.5 µM", "setting": "[23]", "result": 92.4, "unit": "%"}, {"measurement": "viability at 1 µM", "setting": "[24]", "result": 91.2, "unit": "%"}, {"measurement": "Activity", "setting": "[25]", "result": 0.535, "unit": "%"}, {"measurement": "viability at 5 µM", "setting": "[26]", "result": 47.1, "unit": "%"}, {"measurement": "Activity", "setting": "[27]", "result": 20.8, "unit": "%"}, {"measurement": "Activity", "setting": "[28]", "result": 0.867, "unit": "%"}, {"measurement": "inhibition", "setting": "[29]", "result": "Dose-Dependent Effect"}, {"measurement": "Activity", "setting": "[30]", "result": "Active"}, {"measurement": "Activity", "setting": "[31]", "result": 40, "unit": "%"}, {"measurement": "Activity", "setting": "[32]", "result": "Non-Toxic"}, {"measurement": "inhibition", "setting": "[33]", "result": "inactive"}, {"measurement": "inhibition", "setting": "[34]", "result": "inactive"}]}]}
